This note sets out measurements from BigSolDB 2.1.

SMILES strings stand for the structures.

As a reminder, the solubility (mole fraction) is solubility expressed as the solute's share of all molecules. For the molecule `Clc1ccc(OCCCBr)cc1`, the solubility (mole fraction) runs as follows: (in ethanol, 273.15 K) 0.0219; (in ethanol, 278.15 K) 0.0281; (in ethanol, 283.15 K) 0.0366; (in ethanol, 288.15 K) 0.0488; (in ethanol, 293.15 K) 0.0658; (in ethanol, 298.15 K) 0.0933. Moreover, the solubility (mole fraction) (in ethanol, 303.15 K) came out at 0.142.
As for `COc1cc(/C=C/C(=O)CC(=O)/C=C/c2ccc(O)c(OC)c2)ccc1O`, the solubility (mole fraction) is, setting by setting: (in water, 298.15 K) 1.5e-07; (in water, 303.15 K) 1.7e-07; (in water, 308.15 K) 1.9e-07; (in water, 313.15 K) 2e-07; (in water, 318.15 K) 2.2e-07.
For the molecule `CCc1ccc(CCOc2ccc(CC3SC(=O)NC3=O)cc2)nc1.Cl` (centres undefined), the solubility (mole fraction) was determined as 0.00517 (in methanol, 283.15 K); 0.00754 (in methanol, 293.15 K); 0.0102 (in methanol, 303.15 K); 0.0149 (in methanol, 313.15 K); 0.0223 (in methanol, 323.15 K).
Consider `NCCC(=O)O`, for which the solubility (mole fraction) reads like this: (in methanol, 288.15 K) 0.115; (in methanol, 293.15 K) 0.122; (in methanol, 298.15 K) 0.131; (in methanol, 303.15 K) 0.14; (in methanol, 308.15 K) 0.152; (in methanol, 313.15 K) 0.164. The solubility (mole fraction) by setting is: (in methanol, 318.15 K) 0.173; (in methanol, 323.15 K) 0.183.
Consider `N[C@@H](C(=O)O)c1ccc(O)cc1`, for which the solubility (mole fraction) runs as follows: (in water, 293.25 K) 0.00196; (in water, 298.13 K) 0.0021; (in water, 303.15 K) 0.00224; (in water, 308.18 K) 0.00241; (in water, 313.15 K) 0.00255; (in water, 318.17 K) 0.00272.
For `c1ccc2c(c1)[nH]c1ccccc12`, the solubility (mole fraction) runs as follows: (in 1-chlorooctane, 298.15 K) 0.00242; (in 1-chlorotetradecane, 298.15 K) 0.0024; (in chlorocyclohexane, 298.15 K) 0.00291; (in dibutyl ether, 298.15 K) 0.00501.
As to `CCC(C)C`, the solubility (mole fraction) (in water, 293.2 K) was found to be 1.24e-05.
In the case of `CCCCCC`, the solubility (mole fraction) worked out at 3.1e-06 (in water, 280.8 K) and 2.7e-06 (in water, 295.5 K).
With `c1ccc(P(c2ccccc2)c2ccccc2)cc1`, the solubility (mole fraction) (in ethanol, 303.5 K) is 0.009; the solubility (mole fraction) (in ethanol, 308.3 K) turned out to be 0.0117; the solubility (mole fraction) (in ethanol, 313.3 K) was 0.0162; the solubility (mole fraction) (in ethanol, 318.6 K) was 0.0225; the solubility (mole fraction) (in ethanol, 323.2 K) worked out at 0.0279; the solubility (mole fraction) (in ethanol, 327.9 K) was found to be 0.0385. Further, the solubility (mole fraction) (in ethanol, 333 K) is 0.0494.
With `CS(=O)(=O)c1ccc([C@@H](O)[C@@H](CF)NC(=O)C(Cl)Cl)cc1`, the solubility (mole fraction) runs as follows: (in water, 293.15 K) 5.05e-05; (in water, 296.85 K) 6.15e-05; (in water, 300.75 K) 8.19e-05; (in water, 304.55 K) 8.52e-05; (in water, 308.25 K) 9.71e-05; (in water, 312.15 K) 0.000122. For the setting “in water, 316.25 K”, this molecule returned a solubility (mole fraction) of 0.000147.
In the case of `CN1C(C(=O)Nc2ccccn2)=C(O)c2ccccc2S1(=O)=O`, the solubility (mole fraction) by setting is: (in ethanol, 298.15 K) 0.000214; (in water, 298.15 K) 4.01e-07.
For the molecule `O=[N+]([O-])c1ccc(N/N=C/c2cccs2)cc1`, the solubility (mole fraction) (in water, 298.15 K) stood at 1.68e-07.
On to `CC1=C(/C=C/C(C)=C/C=C/C(C)=C/C=C/C=C(C)/C=C/C=C(C)/C=C/C2=C(C)CCCC2(C)C)C(C)(C)CCC1`, for which the solubility (mole fraction) reads like this: (in 1,2-dimethoxyethane, 293.15 K) 6.3e-05; (in 1-hexene, 293.15 K) 0.000187; (in 2-butanone, 293.15 K) 9.1e-05; (in MTBE, 293.15 K) 0.000119; (in acetone, 293.15 K) 1.4e-05; (in cyclohexane, 293.15 K) 0.000302. For the same molecule, the solubility (mole fraction) is, setting by setting: (in cyclohexanone, 293.15 K) 0.00032; (in dibutyl ether, 293.15 K) 0.000158; (in diglyme, 293.15 K) 9.6e-05; (in n-hexane, 293.15 K) 8.9e-05; (in n-octanol, 293.15 K) 2.79e-05; (in tert-amyl methyl ether, 293.15 K) 0.00018. The same molecule registered a solubility (mole fraction) (in toluene, 293.15 K) of 0.00109.
As to `CCCCC`, the solubility (mole fraction) amounted to 1.1e-05 (in water, 286.65 K) and 1.03e-05 (in water, 295.45 K).
As for `O=C(O)c1cccc(C(=O)O)c1`, the solubility (mole fraction) by setting is: (in n-propyl acetate, 303.2 K) 0.000791; (in n-propyl acetate, 313.2 K) 0.000934; (in n-propyl acetate, 323.2 K) 0.00108; (in n-propyl acetate, 333.2 K) 0.00132; (in n-propyl acetate, 343.2 K) 0.00138; (in n-propyl acetate, 353.2 K) 0.0018. The solubility (mole fraction) (in n-propyl acetate, 363.2 K) amounted to 0.00215.
Take `C=C1CC[C@H](O)C/C1=C/C=C1\CCC[C@]2(C)[C@@H]([C@H](C)CCCC(C)C)CC[C@@H]12`: the solubility (mole fraction) (in water, 273.2 K) was 1.97e-07; the solubility (mole fraction) (in water, 278.2 K) stood at 2.95e-07; the solubility (mole fraction) (in water, 283.2 K) came to 4.38e-07; the solubility (mole fraction) (in water, 288.2 K) was determined as 5.71e-07; the solubility (mole fraction) (in water, 298.2 K) was 1.06e-06.
Turning to `COc1ccc2c(c1)c(CC(=O)O)c(C)n2C(=O)c1ccc(Cl)cc1`, the solubility (mole fraction) is, setting by setting: (in acetone, 293 K) 0.0183; (in acetone, 298 K) 0.0208; (in acetone, 303 K) 0.0236; (in acetone, 308 K) 0.0273; (in acetone, 313 K) 0.0316; (in acetone, 318 K) 0.0365.
In turn, `OCCCCCCO` came in with a solubility (mole fraction) (in ethyl acetate, 278.15 K) of 0.0148; a solubility (mole fraction) (in ethyl acetate, 283.15 K) of 0.0274; a solubility (mole fraction) (in ethyl acetate, 288.15 K) of 0.0387; a solubility (mole fraction) (in ethyl acetate, 293.15 K) of 0.0512; a solubility (mole fraction) (in ethyl acetate, 298.15 K) of 0.0834.
Take `CN1C(C(=O)Nc2ccccn2)=C(O)c2sc(Cl)cc2S1(=O)=O`: the solubility (mole fraction) came out at 1.3e-05 (in ethanol, 298.15 K) and 3e-06 (in water, 298.15 K).
For the molecule `NC(CO)(CO)CO`, the solubility (mole fraction) runs as follows: (in methanol, 293.2 K) 0.0076; (in methanol, 298.2 K) 0.0092; (in methanol, 303.2 K) 0.0106; (in methanol, 308.2 K) 0.0124; (in methanol, 313.2 K) 0.0158.
Take `O=c1[nH]cc(C(F)(F)F)c(=O)[nH]1`: the solubility (mole fraction) (in water, 298.15 K) stood at 0.00268.
For `Cc1ccccc1`, the solubility (mole fraction) (in water, 295.7 K) stood at 0.000112.
Consider `Cc1nc2n(c(=O)c1CCN1CCC(c3noc4cc(F)ccc34)CC1)CCCC2`, for which the solubility (mole fraction) (in water, 298.15 K) was determined as 1e-07; the solubility (mole fraction) (in water, 303.15 K) came out at 1e-07; the solubility (mole fraction) (in water, 308.15 K) was 2e-07; the solubility (mole fraction) (in water, 313.15 K) was found to be 2e-07; the solubility (mole fraction) (in water, 318.15 K) stood at 3e-07; the solubility (mole fraction) (in water, 323.15 K) is 4e-07. The solubility (mole fraction) (in water, 328.15 K) was determined as 5e-07 and the solubility (mole fraction) (in water, 333.15 K) was determined as 6e-07.
Consider `COc1ccccc1OCC(O)COC(N)=O` (centres undefined), for which the solubility (mole fraction) (in 1,4-dioxane, 298.15 K) was determined as 0.00331; the solubility (mole fraction) (in PEG-400, 298.15 K) was found to be 0.0262; the solubility (mole fraction) (in ethanol, 298.15 K) turned out to be 0.00436; the solubility (mole fraction) (in methanol, 298.15 K) was determined as 0.00425; the solubility (mole fraction) (in propylene glycol, 298.15 K) was 0.00914; the solubility (mole fraction) (in water, 298.15 K) came out at 0.000735.
With `O=C1c2ccccc2C(=O)N1O`, the solubility (mole fraction) runs as follows: (in acetic acid, 293.2 K) 0.00298; (in acetic acid, 303.2 K) 0.00394; (in acetic acid, 313.2 K) 0.00504; (in acetic acid, 323.2 K) 0.00658; (in acetic acid, 333.2 K) 0.00816; (in acetic acid, 343.2 K) 0.0103. The solubility (mole fraction) worked out at 0.0127 (in acetic acid, 353.2 K) and 0.0155 (in acetic acid, 363.2 K).
On to `Cc1c(O)c(=O)ccn1C`, for which the solubility (mole fraction) is, setting by setting: (in NMP, 298.2 K) 0.002; (in PEG-400, 298.2 K) 0.00864; (in ethanol, 298.2 K) 0.0014; (in ethylene glycol, 298.2 K) 0.00737; (in propylene glycol, 298.2 K) 0.00563.
